How the values were obtained:
Assay type in all cases: biochemical
GSK3α = GSK3α (Homo sapiens, UniProt P49840); test: GSK3α in vitro enzymatic assay (Kinase-Glo Max luminescence); conditions: recombinant human GSK3, 10 μM ATP; approximate values; read-out: Potency GSK3alpha
Protocol: (§1) Enzymatic activities of compounds of the present disclosure can be tested using recombinant human GSK3 in an in vitro enzymatic assay to determine the ability of the compounds of the present disclosure to inhibit GSK3α and GSK3β.
(§2) The assay was performed using Kinase-Glo® Max luminescence kinase assay kit (Promega). The assay measures kinase activity by quantitating the amount of ATP remaining in solution following a kinase reaction. The luminescent signal from the assay is correlated with the amount of ATP present and is inversely correlated with the amount of kinase activity.
(§3) To perform the assay, compounds were diluted in 10% DMSO and 5 μl of the dilution was added to a 50 μl reaction so that the final concentration of DMSO was 1% in all of reactions. The enzymatic reactions were conducted at 30° C. for 40 minutes. The 50 μl reaction mixture contained 40 mM Tris, pH 7.4, 10 mM MgCl2, 0.1 mg/ml BSA, 2 mM DTT, 0.1 mg/ml GSK tide substrate, 10 uM ATP and GSK3. After the enzymatic reaction, 50 μl of Kinase-Glo Max Luminescence kinase assay solution (Promega) was added to each reaction and plates were incubated for 15 minutes at room temperature. Luminescence signal was measured using a BioTek Synergy 2 microplate reader.
(§4) Kinase activity assays were performed in duplicate at each concentration. The luminescence data were analyzed using the computer software, GraphPad Prism. The difference between luminescence intensities in the absence of Kinase (Lut) and in the presence of Kinase (Luc) was defined as 100% activity (Lut-Luc). Using luminescence signal (Lu) in the presence of the compound, percent activity was calculated as: % activity={(Lut-Lu)/(Lut-Luc)}×100%, where Lu=the luminescence intensity in the presence of the compound (all percent activities below zero were shown zero in the table).
(§5) The values of percent activity versus a series of compound concentrations were then plotted using non-linear regression analysis of Sigmoidal dose-response curve generated with the equation Y=B+(T−B)/1+10((LogEC50−X)×Hill Slope), where Y=percent activity, B=minimum percent activity, T=maximum percent activity, X=logarithm of compound and Hill Slope=slope factor or Hill coefficient. The ICs, value was determined by the concentration causing a half-maximal percent activity.

LSD-1 = LSD-1 (Homo sapiens, UniProt O60341); test: LSD-1 A-screen (AlphaScreen) demethylase enzymatic assay; conditions: approximate values; for inhibition at 50 µM: 50 μM compound, read-out: Potency LSD-1 % Inhibition at 50 μM; for IC50: read-out: Potency LSD-1 IC50
Protocol: (§6) Enzymatic activities of compounds of the present disclosure can be tested with recombinant human LSD using an in vitro enzymatic assay to determine the ability of the compounds of the present disclosure to inhibit LSD-1 and LSD2. Examples of the assay are provided below.
(§7) All of the enzymatic reactions were conducted in duplicate at room temperature for 60 minutes in a 10 μL mixture containing assay buffer, histone H3 peptide substrate, demthylase enzyme, and the test compound. These 10 μL reactions were carried out in wells of a 384-well Optiplate (PerkinElmer). The dilution of the compounds was first performed in 100% DMSO with the highest concentration at 5 mM Each intermediate compound dilution (in 100% DMSO) was then directly diluted 30× fold into assay buffer for 3.3× concentration (DMSO). […] From this intermediate step, 3 μL of compound was added to 4 μL of demethylase enzyme dilution was incubated for 30 minutes at room temperature. After this incubation, 3 μL of peptide substrate was added. The final DMSO concentration was 1%. After enzymatic reactions, 5 μL of anti-Mouse or anti-Rabbit Acceptor beads (PerkinElmer, diluted 1:500 with 1× detection buffer) and […] (BPS, diluted 1:800 with 1× detection buffer) were added to the reaction mix. After brief shaking, the plate was incubated for 30 minutes. Finally, 10 μL of AlphaScreen™ Streptavidin-conjugated donor beads (Perkin, diluted 1:125 with 1× detection buffer) were added. After 30 minutes, the samples were measured in an AlphaScreen microplate reader (EnSpire Alpha 2390 Multilabel Reader, Perkin Elmer).
(§8) Enzyme activity assays were performed in duplicates at each concentration. The A-screen intensity data were analyzed and compared. In the absence of the compound, the intensity in each data set was defined as 100% (Ce) activity. In the absence of enzyme, the intensity in each data set was defined as 0% (C0) activity. The percent activity in the presence of each compound was calculated according to the following equation: % activity=(C−C0)/(Ce−C0), where C=the intensity in the presence of the compound.
as §5, with “value” for “values”, “was” for “were”, “IC50” for “ICs,”

LSD2 = target: T1, LSD2 (Homo sapiens, UniProt Q8NB78); test: LSD2 A-screen (AlphaScreen) demethylase enzymatic assay; conditions: approximate values; for inhibition at 50 µM: 50 μM compound, read-out: Potency LSD-2 % Inhibition at 50 μM; for IC50: read-out: Potency LSD-2 IC50
T1 sequence (Q8NB78 1-822): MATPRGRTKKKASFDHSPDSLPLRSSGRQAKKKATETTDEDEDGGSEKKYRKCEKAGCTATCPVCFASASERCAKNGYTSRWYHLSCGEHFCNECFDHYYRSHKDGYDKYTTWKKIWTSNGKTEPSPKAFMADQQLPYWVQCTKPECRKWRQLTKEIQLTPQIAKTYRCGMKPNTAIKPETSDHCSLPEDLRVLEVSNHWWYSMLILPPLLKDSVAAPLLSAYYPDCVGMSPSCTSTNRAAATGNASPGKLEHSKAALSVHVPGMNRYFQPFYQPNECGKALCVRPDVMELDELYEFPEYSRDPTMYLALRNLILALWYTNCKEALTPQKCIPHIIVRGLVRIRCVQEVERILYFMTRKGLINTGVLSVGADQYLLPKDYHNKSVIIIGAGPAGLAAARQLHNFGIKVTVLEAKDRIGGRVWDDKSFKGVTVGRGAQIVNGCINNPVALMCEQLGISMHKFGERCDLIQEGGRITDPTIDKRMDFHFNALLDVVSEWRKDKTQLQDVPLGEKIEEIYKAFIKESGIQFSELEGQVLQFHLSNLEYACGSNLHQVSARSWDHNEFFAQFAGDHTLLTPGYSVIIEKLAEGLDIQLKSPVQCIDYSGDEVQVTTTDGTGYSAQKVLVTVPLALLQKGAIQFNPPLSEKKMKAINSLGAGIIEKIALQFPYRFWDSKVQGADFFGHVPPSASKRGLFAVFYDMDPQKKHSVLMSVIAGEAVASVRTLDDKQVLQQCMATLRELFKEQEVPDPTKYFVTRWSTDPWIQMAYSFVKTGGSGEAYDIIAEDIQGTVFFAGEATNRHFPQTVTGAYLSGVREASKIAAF
Protocol: as §6, §7, §8
as §5, with “value” for “values”, “was” for “were”, “IC50” for “ICs,”

GSK3β = GSK3β (Homo sapiens, UniProt P49841); test: GSK3β in vitro enzymatic assay (Kinase-Glo Max luminescence); conditions: recombinant human GSK3, 10 μM ATP; approximate values; read-out: Potency GSK3beta
Protocol: as §1, §2, §3, §4, §5

Sequence of GSK3α (P49840 whole entry): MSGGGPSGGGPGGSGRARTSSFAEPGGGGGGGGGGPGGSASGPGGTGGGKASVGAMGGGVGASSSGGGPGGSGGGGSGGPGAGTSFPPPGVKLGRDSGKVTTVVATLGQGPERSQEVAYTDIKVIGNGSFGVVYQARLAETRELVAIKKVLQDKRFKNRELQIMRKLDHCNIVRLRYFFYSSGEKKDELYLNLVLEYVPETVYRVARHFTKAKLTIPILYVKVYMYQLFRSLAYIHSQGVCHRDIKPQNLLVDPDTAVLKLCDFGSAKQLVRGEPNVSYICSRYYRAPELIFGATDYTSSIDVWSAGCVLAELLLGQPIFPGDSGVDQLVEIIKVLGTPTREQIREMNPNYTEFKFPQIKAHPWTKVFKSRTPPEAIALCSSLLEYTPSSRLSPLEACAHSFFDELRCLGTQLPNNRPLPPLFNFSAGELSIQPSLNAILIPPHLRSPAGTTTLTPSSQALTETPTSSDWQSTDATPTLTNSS
Sequence of GSK3β (P49841 whole entry): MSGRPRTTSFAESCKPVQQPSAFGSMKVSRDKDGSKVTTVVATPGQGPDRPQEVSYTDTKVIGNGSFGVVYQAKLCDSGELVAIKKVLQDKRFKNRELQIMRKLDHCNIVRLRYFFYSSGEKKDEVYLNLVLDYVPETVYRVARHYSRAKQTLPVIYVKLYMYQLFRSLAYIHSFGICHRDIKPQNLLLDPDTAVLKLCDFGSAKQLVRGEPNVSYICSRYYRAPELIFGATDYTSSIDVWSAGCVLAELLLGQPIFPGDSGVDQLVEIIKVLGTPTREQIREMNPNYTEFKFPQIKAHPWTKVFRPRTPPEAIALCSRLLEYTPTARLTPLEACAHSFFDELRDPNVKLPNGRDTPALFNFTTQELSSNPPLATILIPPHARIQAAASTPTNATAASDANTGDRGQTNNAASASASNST

Row | SMILES | IC50 (GSK3α) [nM] | inhibition at 50 µM (LSD-1) [%] | inhibition at 50 µM (LSD2) [%] | IC50 (GSK3β) [nM] | IC50 (LSD-1) [nM] | IC50 (LSD2) [nM]
1 | CCn1cc(C(=O)O)c(=O)c2c(N)c(F)c(N[C@@H]3C[C@H]3c3ccccc3)cc21 [Compound I-21] | 392 | 19 | 0 | 334 |  | 
2 | CCn1cc(C(=O)O)c(=O)c2c(N)c(F)c(N3CCC(N[C@@H]4C[C@H]4c4ccccc4)CC3)cc21 (relative stereo) [Compound I-26] | > 10000 |  | 53 | > 10000 | 1500 | 
3 | CCn1cc(C(=O)O)c(=O)c2c(N)c(F)c(N[C@@H]3C[C@@H]3c3ccccc3)cc21 (relative stereo) [Compound I-23] | 221 | 26 | 16 | 770 |  | 
4 | CCn1cc(C#N)c(=O)c2c(N)c(F)c(N[C@@H]3C[C@H]3c3ccccc3)cc21 (relative stereo) [Compound I-38] | 6.3 | 15 | 0 | 2.5 |  | 
5 | CCn1cc(C(=O)O)c(=O)c2c(N)c(F)c(N(C)CCN[C@H]3C[C@@H]3c3ccccc3)cc21 (relative stereo) [Compound I-50] | > 10000 |  | 50 | > 10000 | 5500 | 
6 | CCn1cc(C(=O)O)c(=O)c2c(N)c(F)c(NC3Cc4ccccc4C3)cc21 [Compound I-11] | 846 | 27 | 13 | 990 |  | 
7 | CCC(CC)n1cc(C(=O)O)c(=O)c2c(C)c(F)c(NC3CCCCC3)cc21 [Compound I-3] | 250 | 13 | 0 | 366 |  | 
8 | CCn1cc(C(=O)O)c(=O)c2c(N)c(F)c(NCCc3ccccc3)cc21 [Compound I-18] | 121 | 11 | 1 | 231 |  | 
9 | Nc1c(F)c(N[C@@H]2C[C@H]2c2ccccc2)c(F)c2c1c(=O)c(C(=O)O)cn2C1CC1 (relative stereo) [Compound I-32] | 1600 | 40 | 36 | 2100 |  | 
10 | CCn1cc(C(=O)O)c(=O)c2c(N)c(F)c(N[C@@H]3CC[C@H]3c3ccccc3)cc21 (relative stereo) [Compound I-13] | 628 | 26 | 18 | 555 |  | 

Results, then the molecule that gave them:

Row | IC50 (GSK3α) [nM] | inhibition at 50 µM (LSD-1) [%] | inhibition at 50 µM (LSD2) [%] | IC50 (GSK3β) [nM] | IC50 (LSD-1) [nM] | IC50 (LSD2) [nM] | SMILES
11 | 32 | 15 | 4 | 31 |  |  | CCn1cc(C(=O)O)c(=O)c2c(N)c(F)c(N[C@H]3C[C@H](c4ccccc4)C3)cc21 [Compound I-60]
12 | 2.7 |  |  | 2.2 | 1400 | 41000 | CCn1cc(C#N)c(=O)c2c(N)c(F)c(NCCN[C@@H]3C[C@H]3c3ccccc3)cc21 (relative stereo) [Compound I-84]
13 | 3.3 |  |  | 3.4 | 230 | > 100000 | CCn1cc(C(N)=O)c(=O)c2c(N)c(F)c(NCCN[C@H]3C[C@@H]3c3ccccc3)cc21 (relative stereo) [Compound I-83]
14 | 3950 | 3 | 2 | 6540 |  |  | CC(C)n1cc(C(=O)O)c(=O)c2c(N)c(F)c(N[C@]3(C)C[C@@H](N[C@@H]4C[C@H]4c4ccccc4)C3)cc21 (relative stereo) [Compound I-93]
15 | 2.6 | 6 | 4 | 2.5 |  |  | CCn1cc(C(N)=O)c(=O)c2c(N)c(F)c(NCCc3ccccc3)cc21 [Compound I-66]
16 | 919 |  | 6 | 2170 | 1900 |  | Cn1cc(C(=O)O)c(=O)c2c(N)c(F)c(NCCN[C@@H]3C[C@H]3c3ccccc3)cc21 (relative stereo) [Compound I-86]
17 | 1550 |  | 76 | 3380 | 190 |  | CCn1cc(C(=O)O)c(=O)c2c(N)c(F)c(NCCN[C@@H]3C[C@@]34CCc3ccccc34)cc21 (relative stereo) [Compound I-82]
18 | 581 | 0 | 96 | 711 |  |  | CCn1cc(-c2nnn[nH]2)c(=O)c2c(N)c(F)c(NCCc3ccccc3)cc21 [Compound I-68]
19 | 61 | 17 | 3 | 52 |  |  | CCn1cc(C(=O)O)c(=O)c2c(N)c(F)c(NC3CN(c4ccccc4)C3)cc21 [Compound I-69]
20 | 207 |  |  | 169 | 1100 | > 100000 | CCn1cc(C(=O)O)c(=O)c2c(N)c(F)c(NC3CC(N[C@@H]4C[C@H]4c4ccccc4)C3)cc21 (relative stereo) [Compound I-70]
21 | 114 |  | 15 | 157 | 3300 |  | CCCn1cc(C(=O)O)c(=O)c2c(N)c(F)c(NCCN[C@@H]3C[C@H]3c3ccccc3)cc21 (relative stereo) [Compound I-87]
22 | 457 |  |  | 546 | 58 | 43000 | CCn1cc(C(=O)O)c(=O)c2c(N)c(F)c(NCCN[C@@H]3C[C@]34CCc3ccccc34)cc21 (relative stereo) [Compound I-81]
